Entries after “also recorded” stand apart in the source; their conditions may differ.
Columns and labels:
[1] = target: LAR (Homo sapiens, UniProt P10586); assay: LAR inhibition, pNPP substrate; type: biochemical; settings: pNPP at Km, pH 7.0, 25° C.
[2] = target: CDC14A (Homo sapiens, UniProt Q9UNH5); assay: CDC14A inhibition, pNPP substrate; type: biochemical; settings: pNPP at Km, pH 7.0, 25° C.
[3] = target: PTPμ (Homo sapiens, UniProt P28827); assay: PTPμ inhibition, pNPP substrate; type: biochemical, mammalian; settings: pNPP at Km, pH 7.0, 25° C.
[4] = target: HePTP (Homo sapiens, UniProt P35236); assay: HePTP inhibition, pNPP substrate; type: biochemical; settings: pNPP at Km, pH 7.0, 25° C.
[5] = target: LYP (Homo sapiens, UniProt Q9Y2R2); assay: LYP inhibition, pNPP substrate; type: biochemical; settings: pNPP at Km, pH 7.0, 25° C.
[6] = target: PTPε (Homo sapiens, UniProt P23469); assay: PTPε inhibition, pNPP substrate; type: biochemical, mammalian; settings: pNPP at Km, pH 7.0, 25° C.
[7] = target: MKP3 (Homo sapiens, UniProt Q16828); assay: MKP3 inhibition, pNPP substrate; type: biochemical; settings: pH 7
[8] = target: VHR (Homo sapiens, UniProt P51452); assay: VHR inhibition, pNPP substrate; type: biochemical; settings: pNPP at Km, pH 7.0, 25° C.
[9] = target: T1, Ssu72 (Homo sapiens, UniProt Q9NP77); assay: Ssu72 inhibition, pNPP substrate; type: biochemical; settings: pH 7
T1 construct: made in house

[10] = target: CD45 (Homo sapiens, UniProt P08575); assay: CD45 inhibition, pNPP substrate; type: biochemical; settings: pNPP at Km, pH 7.0, 25° C.
[11] = target: T2, SHP2 (Homo sapiens, UniProt Q06124); assay: SHP2 inhibition, pNPP substrate; type: biochemical; settings: for mode of SHP2 inhibition: pNPP as substrate
T2 sequence (Q06124 224-528): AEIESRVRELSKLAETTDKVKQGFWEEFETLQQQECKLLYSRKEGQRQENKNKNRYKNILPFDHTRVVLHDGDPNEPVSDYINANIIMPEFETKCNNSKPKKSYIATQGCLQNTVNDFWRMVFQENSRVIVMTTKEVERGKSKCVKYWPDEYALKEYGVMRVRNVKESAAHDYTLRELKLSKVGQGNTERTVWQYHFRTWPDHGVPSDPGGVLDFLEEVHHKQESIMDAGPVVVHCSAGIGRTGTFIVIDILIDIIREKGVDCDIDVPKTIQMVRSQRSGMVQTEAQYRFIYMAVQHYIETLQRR

[12] = target: PTP1B (Homo sapiens, UniProt P18031); assay: PTP1B inhibition, pNPP substrate; type: biochemical; settings: pNPP at Km, pH 7.0, 25° C.
[13] = target: PTPγ (Homo sapiens, UniProt P23470); assay: PTPγ inhibition, pNPP substrate; type: biochemical; settings: pNPP at Km, pH 7.0, 25° C.
[14] = target: SHP1 (Homo sapiens, UniProt P29350); assay: SHP1 inhibition, pNPP substrate; type: biochemical; settings: pNPP at Km, pH 7.0, 25° C.
[15] = target: PTPα (Homo sapiens, UniProt P18433); assay: PTPα inhibition, pNPP substrate; type: biochemical; settings: pNPP at Km, pH 7.0, 25° C.
[16] = target: PTPβ (Homo sapiens, UniProt P23467); assay: PTPβ inhibition, pNPP substrate; type: biochemical, mammalian; settings: pNPP at Km, pH 7.0, 25° C.
[17] = target: PTPσ (Homo sapiens, UniProt Q13332); assay: PTPσ inhibition, pNPP substrate; type: biochemical; settings: pH 7
[18] = target: FAP1 (Homo sapiens, UniProt Q12923); assay: FAP1 inhibition, pNPP substrate; type: biochemical; settings: pH 7
[19] = target: T3, VHZ (Homo sapiens, UniProt Q9BVJ7); assay: VHZ inhibition, pNPP substrate; type: biochemical; settings: pNPP at Km, pH 7.0, 25° C.
T3 construct: made in house

[20] = target: Meg2 (Homo sapiens, UniProt P43378); assay: Meg2 inhibition, pNPP substrate; type: biochemical; settings: pNPP at Km, pH 7.0, 25° C.
[21] = target: TcPTP (Homo sapiens, UniProt P17706); assay: TcPTP inhibition, pNPP substrate; type: biochemical; settings: pH 7
[22] = target: PP5 (Homo sapiens, UniProt P53041); assay: PP5 inhibition, pNPP substrate; type: biochemical, mammalian; settings: pNPP at Km, pH 7.0, 25° C.
[23] = target: PEST (Homo sapiens, UniProt Q05209); assay: PEST inhibition, pNPP substrate; type: biochemical
[24] = target: T4, Laforin (Homo sapiens, UniProt O95278); assay: Laforin inhibition, pNPP substrate; type: biochemical
T4 sequence (O95278 1-331): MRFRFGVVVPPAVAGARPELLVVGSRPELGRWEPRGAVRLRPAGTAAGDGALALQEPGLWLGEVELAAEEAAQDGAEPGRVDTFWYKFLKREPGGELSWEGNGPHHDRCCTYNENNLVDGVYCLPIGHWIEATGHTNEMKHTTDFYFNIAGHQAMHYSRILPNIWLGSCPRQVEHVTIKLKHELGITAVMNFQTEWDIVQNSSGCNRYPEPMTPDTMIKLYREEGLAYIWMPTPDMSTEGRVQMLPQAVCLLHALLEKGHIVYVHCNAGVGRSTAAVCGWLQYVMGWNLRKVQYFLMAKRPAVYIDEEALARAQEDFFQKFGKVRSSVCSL

[25] = target: LMWPTP (Homo sapiens, UniProt P24666); assay: biochemical
[26] = Stability in buffer solutions by LC-MS; type: physicochemical
Protocol: (§1) Agilent Technologies 6130 quadrupole LC-MS instrument was used for the LC-MS studies. A C18 reserved phase column (phenomenex, 50×4.6 mm) was used as stationary phase, water and methanol (both containing 0.1% formic acid) were used as mobile phase (gradient: 0-100% methanol, flow 0 8 ml/min, run time 15 minutes), and UV absorbance at the fixed wavelength of 254 nm and positive and negative ESI-MS data were recorded. The sample was adjusted to have a concentration at 0.1 mg/mL, and the injection volume of each sample was 0.2 μL. The retention time and corresponding ESI-MS data were used as identity of molecules.

[27] = target: SHP2 (Homo sapiens, UniProt Q06124); assay: Covalent adduct formation with SHP2, QTOF ESI-MS / LC-MS; settings: pH 7, cefsulodin 3 hours, PVS 10 minutes
Protocol: Characterization of cefsulodin-mediated SHP2 inhibition by Q-TOF ESI-MS, LC-MS, and HPLC. Agilent 6520 Accurate-Mass was used for the Q-TOF ESI-MS studies. Water and acetonitrile (both containing 0.1% formic acid) were used as eluent (80% water, flow 50 μL/min, run time 5 minutes). ESI positive mode was used with mass range from 300 to 1700, the gas temperature was 325° C., and vaporizer temperature was: […] The sample was adjusted to have a concentration at 0.1 mg/mL, the injection volume of each sample was 1 μL. Mass hunter software was used for protein deconvolution data analysis to calculate the molecular weight of the protein.
as §1

[28] = target: SHP2/R362A (Homo sapiens, UniProt Q06124, R362A); assay: SHP2/R362A mutant inhibition, pNPP substrate; type: biochemical; settings: vs wild-type SHP2
Protocol: Protein expression and purification. […] These proteins were expressed in E. coli BL21(DE3) and purified with Ni-NTA resin (Qiagen). The SHP2 catalytic domain (residues 262-528) used for crystallization was expressed in E. coli BL21(DE3) and purified by Ni-NTA agarose (Qiagen) followed by sequential chromatography of HiPrep 26 desalting column (GE Healthcare), and cation exchange column packed with SP sepharose (GE Healthcare). Protein purity was determined to be greater than 95% by SDS-PAGE and Coomassie blue staining.
Enzyme kinetics and inhibition studies. The SHP2 phosphatase activity was assayed in 96-well plates using pNPP as a substrate at 25° C. in 50 mM 3,3-dimethylglutarate (DMG) buffer (pH=7.0), containing 1 mM EDTA with an ionic strength of 0.15 M adjusted by NaCl. The FDA-approved drug collection or the SPAA based libraries were screened in a 96-well format at two different compound concentrations (10 and 20 μM for FDA drugs and 10 and 1 μM for the SPAA libraries). […] The amount of product, p-nitrophenol, was determined from the absorbance at 405 nm detected by a Spectra MAX340 microplate spectrophotometer (Molecular Devices) using a molar extinction coefficient of 18,000 M^−1 cm^−1. […] The Michaelis-Menten kinetic parameters kcat and Km were determined from a direct fit of the velocity versus substrate concentration data to Michaelis-Menten equation using SigmaPlot program.

[29] = test system: SKBR3 cells; assay: SKBR3 cell growth and ERK1/2 in Matrigel; type: cell-based, human; settings: 5 days
Protocol: SHP2 inhibitor 2 effects on cell growth in Matrigel. Approximately 300,000 SKBR3 cells were seeded into 150 µL of growth factor reduced Matrigel (BD) that was then covered with 2 mLs of media containing either 20 µL vehicle (DMSO) or the indicated concentrations of compound 2. Cells were then imaged at 24-hour intervals using a NIKON SMZ1500 stereomicroscope. After 5 days the cells were recovered from the Matrigel by the following method. Media was aspirated and cells were washed with 500 µL of cold PBS. 150 µL of RIPA lysis buffer supplemented with ProteCEASE-50. EDTA Free protease inhibitors (GBiosciences) was added to the Matrigel. Cells were scraped into a slurry and instantly frozen using dry ice for 5 minutes. After thawing tubes were spun down at 4° C. for 10 minutes at 14K rpm. Proteins were then resolved by SDS-PAGE and the relative levels of total and phospho-ERK1/2 were detected by immunoblot analysis.

[30] = test system: PMA-induced ERK1/2 phosphorylation; assay: PMA-induced ERK1/2 phosphorylation, immunoblot; type: cell-based, human
Protocol: (§2) Cell proliferation and immunoblot analysis. Human non-small cell lung carcinoma cell line H1975 was cultured at 37° C. and 5% CO2 in RPMI-1640 (Corning) supplemented with 10% fetal bovine serum (HyClone). Human breast cancer cell line MDA-MB-231 was cultured in DMEM supplemented with 10% fetal bovine serum. For cell proliferation assay, 2˜3×10^3 cells were seeded in each well of 96-well plates. After treating cells with compounds for 2 days, cells were incubated with 50 µg/ml MTT (3-(4,5-Dimethylthiazol-2-yl)-2,5-diphenyltetrazolium bromide) for ˜3-4 hours. Then, the culture medium was removed, DMSO was added to dissolve the formazan crystals. Wells containing only media were used for background correction. The optical density was measured spectrophotometrically at 540 nm. For signaling analysis, cells were serum-starved overnight followed by treatment with vehicle or compounds for 3 hours, and then either left un-stimulated or stimulated with 5 μg/ml EGF or 10 nM PMA (Sigma) for indicated time. Cells were lysed and the lysates were electrophoresed on a 10% polyacrylamide gel, and then transferred to a nitrocellulose membrane, and probed with anti-phospho-ERK1/2 and anti-ERK1/2 (Cell Signaling) antibodies followed by incubation with horseradish peroxidase-conjugated secondary antibodies. […]

[31] = test system: EGF-mediated ERK1/2 phosphorylation; assay: EGF-mediated ERK1/2 phosphorylation, immunoblot, H1975 cells; type: cell-based, human; settings: compound 7 at 40 μM
Protocol: as §2

Sequence of HePTP (P35236 whole entry): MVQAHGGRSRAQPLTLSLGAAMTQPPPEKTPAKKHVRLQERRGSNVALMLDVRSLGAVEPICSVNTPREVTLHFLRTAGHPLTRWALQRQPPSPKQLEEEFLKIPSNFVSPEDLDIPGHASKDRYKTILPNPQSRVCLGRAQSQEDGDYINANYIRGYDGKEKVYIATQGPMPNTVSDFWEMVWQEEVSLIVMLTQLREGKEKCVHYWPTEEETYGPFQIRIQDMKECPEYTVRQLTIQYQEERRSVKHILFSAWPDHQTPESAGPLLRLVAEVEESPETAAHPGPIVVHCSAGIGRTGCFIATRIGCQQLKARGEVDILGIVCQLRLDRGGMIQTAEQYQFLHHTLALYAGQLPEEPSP
Sequence of CD45 (P08575 26-1306): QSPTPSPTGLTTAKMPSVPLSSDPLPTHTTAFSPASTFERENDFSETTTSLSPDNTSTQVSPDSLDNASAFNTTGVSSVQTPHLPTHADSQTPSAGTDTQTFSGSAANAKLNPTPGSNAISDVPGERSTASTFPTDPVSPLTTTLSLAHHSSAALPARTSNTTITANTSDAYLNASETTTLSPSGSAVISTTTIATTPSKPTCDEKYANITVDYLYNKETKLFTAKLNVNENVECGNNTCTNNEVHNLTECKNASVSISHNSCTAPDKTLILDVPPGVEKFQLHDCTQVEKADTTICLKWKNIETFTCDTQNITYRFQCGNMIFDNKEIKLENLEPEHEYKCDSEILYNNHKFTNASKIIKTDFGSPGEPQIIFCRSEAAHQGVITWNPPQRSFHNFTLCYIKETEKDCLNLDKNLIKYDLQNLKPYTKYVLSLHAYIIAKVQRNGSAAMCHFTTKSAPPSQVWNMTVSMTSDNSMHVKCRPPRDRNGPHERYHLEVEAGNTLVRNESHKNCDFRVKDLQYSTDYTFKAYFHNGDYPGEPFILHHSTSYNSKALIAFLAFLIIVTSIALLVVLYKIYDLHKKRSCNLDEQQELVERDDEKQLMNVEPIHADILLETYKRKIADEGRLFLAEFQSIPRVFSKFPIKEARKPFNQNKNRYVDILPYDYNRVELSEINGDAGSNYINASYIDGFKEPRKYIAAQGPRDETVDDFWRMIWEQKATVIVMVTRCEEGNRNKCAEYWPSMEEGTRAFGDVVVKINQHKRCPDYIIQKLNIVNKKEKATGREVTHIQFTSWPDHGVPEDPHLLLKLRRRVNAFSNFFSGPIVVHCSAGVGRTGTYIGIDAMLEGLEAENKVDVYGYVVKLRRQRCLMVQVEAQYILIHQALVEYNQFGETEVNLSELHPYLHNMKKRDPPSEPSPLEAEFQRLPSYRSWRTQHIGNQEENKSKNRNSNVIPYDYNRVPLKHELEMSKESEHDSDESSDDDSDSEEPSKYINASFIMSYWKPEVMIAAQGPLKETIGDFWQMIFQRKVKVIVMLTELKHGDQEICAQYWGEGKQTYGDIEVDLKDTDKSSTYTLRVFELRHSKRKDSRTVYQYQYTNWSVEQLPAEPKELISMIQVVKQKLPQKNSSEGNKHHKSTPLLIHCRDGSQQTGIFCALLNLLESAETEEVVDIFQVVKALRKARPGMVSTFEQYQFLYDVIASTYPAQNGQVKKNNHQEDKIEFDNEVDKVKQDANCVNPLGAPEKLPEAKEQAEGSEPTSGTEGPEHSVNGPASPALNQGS
Sequence of PTPα (P18433 20-802): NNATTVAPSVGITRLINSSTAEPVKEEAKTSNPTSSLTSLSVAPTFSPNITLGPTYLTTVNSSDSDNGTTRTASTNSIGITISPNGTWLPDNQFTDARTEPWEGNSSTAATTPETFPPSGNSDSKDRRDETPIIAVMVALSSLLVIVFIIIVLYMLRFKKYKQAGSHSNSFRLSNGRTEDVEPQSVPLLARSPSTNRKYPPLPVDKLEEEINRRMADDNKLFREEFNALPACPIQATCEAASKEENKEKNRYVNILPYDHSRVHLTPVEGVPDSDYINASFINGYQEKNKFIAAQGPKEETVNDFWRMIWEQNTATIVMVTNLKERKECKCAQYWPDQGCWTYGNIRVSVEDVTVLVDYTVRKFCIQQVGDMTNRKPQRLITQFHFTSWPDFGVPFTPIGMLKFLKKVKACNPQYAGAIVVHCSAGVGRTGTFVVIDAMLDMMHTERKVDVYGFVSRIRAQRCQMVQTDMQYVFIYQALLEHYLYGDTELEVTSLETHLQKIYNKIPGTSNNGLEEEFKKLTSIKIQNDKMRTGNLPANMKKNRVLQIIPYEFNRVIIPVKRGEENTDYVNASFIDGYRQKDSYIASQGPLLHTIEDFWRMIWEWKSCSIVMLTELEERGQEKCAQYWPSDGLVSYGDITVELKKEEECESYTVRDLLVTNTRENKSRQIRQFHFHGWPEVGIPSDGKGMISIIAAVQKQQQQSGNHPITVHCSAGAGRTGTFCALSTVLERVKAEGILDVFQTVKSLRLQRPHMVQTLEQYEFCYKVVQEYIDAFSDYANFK
Sequence of TcPTP (P17706 whole entry): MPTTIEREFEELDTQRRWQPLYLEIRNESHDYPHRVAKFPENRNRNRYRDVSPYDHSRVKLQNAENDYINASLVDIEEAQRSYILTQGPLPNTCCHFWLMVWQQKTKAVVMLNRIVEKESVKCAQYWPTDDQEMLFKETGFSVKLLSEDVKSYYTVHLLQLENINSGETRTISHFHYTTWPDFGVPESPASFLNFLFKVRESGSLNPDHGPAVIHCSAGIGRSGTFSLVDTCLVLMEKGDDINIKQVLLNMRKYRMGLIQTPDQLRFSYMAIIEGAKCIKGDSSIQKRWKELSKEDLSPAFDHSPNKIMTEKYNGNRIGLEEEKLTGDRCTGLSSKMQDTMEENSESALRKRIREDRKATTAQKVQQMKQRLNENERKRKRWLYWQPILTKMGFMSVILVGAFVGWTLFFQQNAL
T1 sequence (Q9NP77 whole entry): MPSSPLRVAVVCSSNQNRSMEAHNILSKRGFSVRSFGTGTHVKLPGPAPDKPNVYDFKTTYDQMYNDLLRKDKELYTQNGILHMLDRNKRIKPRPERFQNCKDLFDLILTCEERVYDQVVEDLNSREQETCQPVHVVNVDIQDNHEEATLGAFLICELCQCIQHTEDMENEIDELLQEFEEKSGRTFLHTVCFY
T3 sequence (Q9BVJ7 whole entry, species assumed): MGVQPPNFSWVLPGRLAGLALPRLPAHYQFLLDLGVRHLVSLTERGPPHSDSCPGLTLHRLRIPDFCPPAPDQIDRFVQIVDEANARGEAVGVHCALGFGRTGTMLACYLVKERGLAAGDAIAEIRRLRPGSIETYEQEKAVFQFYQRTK
Sequence of PEST (Q05209 whole entry): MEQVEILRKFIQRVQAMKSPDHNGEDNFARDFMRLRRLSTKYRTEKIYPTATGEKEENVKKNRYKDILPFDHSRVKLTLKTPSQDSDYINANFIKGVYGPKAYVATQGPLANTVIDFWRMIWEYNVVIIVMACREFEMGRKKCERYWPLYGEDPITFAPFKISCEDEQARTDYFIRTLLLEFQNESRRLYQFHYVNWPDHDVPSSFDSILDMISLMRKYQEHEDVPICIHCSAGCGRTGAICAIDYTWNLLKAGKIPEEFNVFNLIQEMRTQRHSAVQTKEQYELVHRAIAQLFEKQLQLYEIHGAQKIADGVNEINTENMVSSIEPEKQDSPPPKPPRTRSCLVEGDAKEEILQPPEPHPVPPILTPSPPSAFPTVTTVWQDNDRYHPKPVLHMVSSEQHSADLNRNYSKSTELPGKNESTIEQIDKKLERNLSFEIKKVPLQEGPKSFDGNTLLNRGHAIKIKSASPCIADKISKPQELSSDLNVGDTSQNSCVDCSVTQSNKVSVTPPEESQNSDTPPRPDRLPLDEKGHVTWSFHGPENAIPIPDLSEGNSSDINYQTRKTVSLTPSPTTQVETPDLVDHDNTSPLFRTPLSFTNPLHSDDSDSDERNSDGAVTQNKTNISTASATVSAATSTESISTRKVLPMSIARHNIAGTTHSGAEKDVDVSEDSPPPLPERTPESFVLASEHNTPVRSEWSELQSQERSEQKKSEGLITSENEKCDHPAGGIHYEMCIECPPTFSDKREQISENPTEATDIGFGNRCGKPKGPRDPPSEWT
Sequence of LYP (Q9Y2R2 whole entry): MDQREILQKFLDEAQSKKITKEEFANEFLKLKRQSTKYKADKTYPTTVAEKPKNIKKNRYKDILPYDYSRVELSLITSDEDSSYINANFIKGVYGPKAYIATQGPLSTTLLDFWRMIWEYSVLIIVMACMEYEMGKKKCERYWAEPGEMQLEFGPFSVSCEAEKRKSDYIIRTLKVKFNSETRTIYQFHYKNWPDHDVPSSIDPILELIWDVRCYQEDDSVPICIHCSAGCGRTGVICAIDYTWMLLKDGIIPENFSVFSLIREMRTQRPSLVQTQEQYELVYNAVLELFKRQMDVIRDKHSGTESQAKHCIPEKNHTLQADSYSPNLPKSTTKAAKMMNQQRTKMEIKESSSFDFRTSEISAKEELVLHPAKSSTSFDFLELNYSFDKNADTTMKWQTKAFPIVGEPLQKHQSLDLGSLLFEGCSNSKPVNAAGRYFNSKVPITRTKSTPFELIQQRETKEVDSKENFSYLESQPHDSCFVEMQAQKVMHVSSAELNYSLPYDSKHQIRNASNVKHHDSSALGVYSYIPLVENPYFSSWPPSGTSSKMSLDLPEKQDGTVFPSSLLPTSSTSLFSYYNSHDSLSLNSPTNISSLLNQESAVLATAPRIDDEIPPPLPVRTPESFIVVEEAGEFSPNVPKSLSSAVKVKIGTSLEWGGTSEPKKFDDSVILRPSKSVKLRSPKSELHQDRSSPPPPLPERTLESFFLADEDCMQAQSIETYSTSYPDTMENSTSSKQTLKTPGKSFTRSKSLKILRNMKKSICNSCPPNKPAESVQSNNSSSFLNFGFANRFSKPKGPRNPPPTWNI
Sequence of LMWPTP (P24666 whole entry): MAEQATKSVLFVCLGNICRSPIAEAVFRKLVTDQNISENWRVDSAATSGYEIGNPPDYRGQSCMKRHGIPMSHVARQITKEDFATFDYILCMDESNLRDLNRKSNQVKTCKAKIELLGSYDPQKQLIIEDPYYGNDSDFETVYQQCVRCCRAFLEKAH

SMILES: Cc1c(Br)cc(NC(=O)C(c2ccccc2)S(=O)(=O)O)cc1Br (stereo not shown) [Compound L319M34]
- IC50 [1]: > 200 µM
- IC50 [2]: > 200 µM
- IC50 [3]: > 200 µM
- IC50 [4]: > 200 µM
- IC50 [5]: > 200 µM
- IC50 [6]: > 200 µM
- IC50 [7]: > 200 µM
- IC50 [8]: > 200 µM
- IC50 [9]: > 200 µM
- IC50 [10]: > 200 µM
- IC50 ([11]; pNPP at Km, pH 7.0, 25° C.): > 200 µM
- IC50 [12]: > 200 µM
- IC50 [13]: > 200 µM
- IC50 [14]: > 200 µM
- IC50 [15]: > 200 µM
- IC50 [16]: > 200 µM
- IC50 [17]: > 200 µM
- IC50 [18]: > 200 µM
- IC50 [19]: > 200 µM
- IC50 [20]: > 200 µM
- IC50 [21]: > 200 µM
- IC50 [22]: > 200 µM

SMILES: O=C(Nc1nnc(-c2ccc(Br)cc2)s1)C(c1ccccc1)S(=O)(=O)O (stereo not shown) [Compound L319M79]
- IC50 [23]: 26.5 µM
- IC50 [24]: 2.2 µM
- IC50 [25]: 23.6 µM

SMILES: NC(=O)c1cc[n+](CC2=C(C(=O)O)N3C(=O)[C@@H](NC(=O)[C@@H](c4ccccc4)S(=O)(=O)[O-])[C@H]3SC2)cc1 [Cefsulodin]
- mode of SHP2 inhibition [11]: competitive inhibitor
- mode of SHP2 inhibition ([11]; listed as cefsulodin): competitive and reversible
- stability in crystallization solution (final pH=7.1) ([26]; 20° C., with SHP2 and DTT): completely degraded within 2 days; also recorded: the majority of cefsulodin was gone after 2 d
- stability in CBTP buffer at pH 9.1 ([26]; 3 h, 6 h, 12 h): degradation was further accelerated; also recorded: cefsulodin was gone after 12 h
- stability in pH 5.8 MES buffer ([26]; 12 h, 1 d, 2 d): degradation of cefsulodin was negligible; also recorded: stable for at least 2 days
- stability in pH 7.4 CBTP buffer ([26]; 12 h, 1 d, 2 d): degradation was obvious; also recorded: cefsulodin concentrations decreased progressively
- stability under inhibition assay conditions ([26]; pH 7 and 25° C., 0 h, 3 h, 24 h and 48 h): no change in cefsulodin
- covalent adduct formation with SHP2 [27]: no covalent adduct formation; also recorded: not inhibiting SHP2 by covalent modification
- increase of IC50 by replacement of R362 with alanine [28]: 3 fold

SMILES: O=C(Nc1ccc(I)cc1)C(=O)Nc1ccc(NC(=O)C(c2ccccc2)S(=O)(=O)O)cc1 (stereo not shown) [Compound 2, 2-((4-(2-((4-iodophenyl)amino)-2-oxoacetamido)phenyl)amino)-2-oxo-1-phenylethanesulfonic acid]
- ERK1/2 activity in SKBR3 cells in Matrigel at 20 μM ([29]; 20 μM): partial inhibition
- SKBR3 cell growth in Matrigel at 20 μM ([29]; 20 μM): partial inhibition
- ERK1/2 activity in SKBR3 cells in Matrigel at 40 μM ([29]; 40 μM): barely detectable
- SKBR3 cell growth in Matrigel at 40 μM ([29]; 40 μM): almost completely absent
- PMA-induced ERK1/2 phosphorylation [30]: no effect
- EGF-mediated ERK1/2 phosphorylation in H1975 cells [31]: reduced EGF-mediated ERK1/2 phosphorylation in a dose-dependent manner; also recorded: decrease the EGF-mediated ERK1/2 phosphorylation in a dose dependent manner

Source: US10532977B2, “Small molecule inhibitors of protein tyrosine phosphatases and uses thereof” (Indiana University Research and Technology Corporation, priority 2015, dated 2020)
